Results as given in US7268136B2, “Compositions useful as inhibitors of protein kinases” (Vertex Pharmaceuticals Incorporated, priority 2002, dated 2007).

Columns and labels:
Assay type in all cases: biochemical
GSK-3β (AA 1-420) = biological target: T1, GSK-3β (AA 1-420) (Homo sapiens, UniProt P49841); assay: Inhibition of GSK-3, standard coupled enzyme system; settings: 20 μM ATP, 300 μM peptide, 20 nM GSK-3β, 30° C.
T1 construct: GSK-3β (AA 1-420)
Experimental: Compounds were screened for their ability to inhibit GSK-3β (AA 1-420) activity using a standard coupled enzyme system (Fox et al. (1998) Protein Sci. 7, 2249). Reactions were carried out in a solution containing 100 mM HEPES (pH 7.5), 10 mM MgCl2, 25 mM NaCl, 300 μM NADH, 1 mM DTT and 1.5% DMSO. Final substrate concentrations in the assay were 20 μM ATP (Sigma Chemicals, St Louis, Mo.) and 300 μM peptide (American Peptide, Sunnyvale, Calif.). Reactions were carried out at 30° C. and 20 nM GSK-3β. Final concentrations of the components of the coupled enzyme system were 2.5 mM phosphoenolpyruvate, 300 μM NADH, 30 μg/ml pyruvate kinase and 10 μg/ml lactate dehydrogenase. An assay stock buffer solution was prepared containing all of the reagents listed above with the exception of ATP and the test compound of interest. The assay stock buffer solution (175 μl) was incubated in a 96 well plate with 5 μl of the test compound of interest at final concentrations spanning 0.002 μM to 30 μM at 30° C. for 10 min. Typically, a 12 point titration was conducted by preparing serial dilutions (from 10 mM compound stocks) with DMSO of the test compounds in daughter plates. The reaction was initiated by the addition of 20 μl of ATP (final concentration 20 μM). Rates of reaction were obtained using a Molecular Devices Spectramax plate reader (Sunnyvale, Calif.) over 10 min at 30° C. The Ki values were determined from the rate data as a function of inhibitor concentration.

PIM-1 = PIM-1 (Homo sapiens, UniProt P11309); assay: Inhibition of PIM-1, standard coupled enzyme assay
Experimental: Reactions were carried out in 100 mM HEPES pH 7.5, 10 mM MgCl2, 25 mM NaCl, 1 mM DTT, 20 μg/ml BSA and 1.5% DMSO. […] Assays were carried out at 30° C. and 50 nM PIM-1.
An assay stock buffer solution was prepared containing all of the reagents listed above, with the exception of PIM-1, DTT, BSA and the test compound of interest. 56 μl of the test reaction was placed in a 384 well plate followed by addition of 1 μl of 2 mM DMSO stock containing the test compound (final compound concentration 30 μM). The plate was preincubated for ˜10 minutes at 30° C. and the reaction initiated by addition of 10 μl of enzyme in DTT and BSA (final concentrations: 50 nM PIM-1, 1 mM DTT, and 20 μg/ml BSA). Rates of reaction were obtained using a BioRad Ultramark plate reader (Hercules, Calif.) over a 5 minute read time at 30° C.

human Src kinase = biological target: T2, human Src kinase (Homo sapiens, UniProt P12931); assay: Inhibition of SRC, radioactivity-based assay or spectrophotometric assay; settings: full length recombinant human Src kinase, poly Glu-Tyr substrate; assay A or B not specified
T2 construct: full length recombinant human Src kinase (from Upstate Biotechnology, cat. no. 14-117); purchased Upstate Biotechnology 14-117; host or cells: baculo viral cells (baculovirus expression)
Experimental: The compounds are evaluated as inhibitors of human Src kinase using either a radioactivity-based assay or spectrophotometric assay.
Src Inhibition Assay A: Radioactivity-based Assay
The compounds are assayed as inhibitors of full length recombinant human Src kinase (from Upstate Biotechnology, cat. no. 14-117) expressed and purified from baculo viral cells. Src kinase activity is monitored by following the incorporation of ^33P from ATP into the tyrosine of a random poly Glu-Tyr polymer substrate of composition, Glu:Tyr=4:1 (Sigma, cat. no. P-0275). The following are the final concentrations of the assay components: 0.05 M HEPES, pH 7.6, 10 mM MgCl2, 2 mM DTT, 0.25 mg/ml BSA, 10 μM ATP (1-2 μCi ^33P-ATP per reaction), 5 mg/ml poly Glu-Tyr, and 1-2 units of recombinant human Src kinase. In a typical assay, all the reaction components with the exception of ATP are pre-mixed and aliquoted into assay plate wells. Inhibitors dissolved in DMSO are added to the wells to give a final DMSO concentration of 2.5%. The assay plate is incubated at 30° C. for 10 min before initiating the reaction with ^33P-ATP. After 20 min of reaction, the reactions are quenched with 150 μl of 10% trichloroacetic acid (TCA) containing 20 mM Na3PO4. The quenched samples are then transferred to a 96-well filter plate (Whatman, UNI-Filter GF/F Glass Fiber Filter, cat no. 7700-3310) installed on a filter plate vacuum manifold. Filter plates are washed four times with 10% TCA containing 20 mM Na3PO4 and then 4 times with methanol. 200 μl of scintillation fluid is then added to each well. The plates were sealed and the amount of radioactivity associated with the filters is quantified on a TopCount scintillation counter. The radioactivity incorporated is plotted as a function of the inhibitor concentration. The data is fitted to a competitive inhibition kinetics model to get the Ki for the compound.
Src Inhibition Assay B: Spectrophotometric Assay
The ADP produced from ATP by the human recombinant Src kinase-catalyzed phosphorylation of poly Glu-Tyr substrate is quantified using a coupled enzyme assay (Fox et al (1998) Protein Sci 7, 2249). In this assay one molecule of NADH is oxidised to NAD for every molecule of ADP produced in the kinase reaction. The disappearance of NADH is conveniently followed at 340 nm.
The following are the final concentrations of the assay components: 0.025 M HEPES, pH 7.6, 10 mM MgCl2, 2 mM DTT, 0.25 mg/ml poly Glu-Tyr, and 25 nM of recombinant human Src kinase. […]
In a typical assay, all the reaction components with the exception of ATP are pre-mixed and aliquoted into assay plate wells. […] The absorbance change at 340 nm with time, the rate of the reaction, is monitored on a molecular devices plate reader. […]

CDK-2/Cyclin A = CDK-2/Cyclin A (Homo sapiens, UniProt P24941); assay: Inhibition of CDK-2, standard coupled enzyme assay; settings: 100 μM ATP, 100 μM peptide, 25 nM CDK-2/Cyclin A, 30° C.
Experimental: Compounds were screened for their ability to inhibit CDK-2/Cyclin A using a standard coupled enzyme assay (Fox et al (1998) Protein Sci 7, 2249). Reactions were carried out in 100 mM HEPES pH 7.5, 10 mM MgCl2, 25 mM NaCl, 1 mM DTT and 1.5% DMSO. Final substrate concentrations in the assay were 100 μM ATP (Sigma chemicals) and 100 μM peptide (American Peptide, Sunnyvale, Calif.). Assays were carried out at 30° C. and 25 nM CDK-2/Cyclin A. Final concentrations of the components of the coupled enzyme system were 2.5 mM phosphoenolpyruvate, 350 μM NADH, 30 μg/ml pyruvate kinase and 10 μg/ml lactate dehydrogenase.
An assay stock buffer solution was prepared containing all of the reagents listed above, with the exception of CDK-2/Cyclin A, DTT and the test compound of interest. 56 μl of the test reaction was placed in a 384 well plate followed by addition of 1 μl of 2 mM DMSO stock containing the test compound (final compound concentration 30 μM). The plate was preincubated for ˜10 minutes at 30° C. and the reaction initiated by addition of 10 μl of enzyme (final concentration 25 nM). Rates of reaction were obtained using a BioRad Ultramark plate reader (Hercules, Calif.) over a 5 minute read time at 30° C. Ki values were determined according to standard methods.

Chain of PIM-1 (P11309 whole entry): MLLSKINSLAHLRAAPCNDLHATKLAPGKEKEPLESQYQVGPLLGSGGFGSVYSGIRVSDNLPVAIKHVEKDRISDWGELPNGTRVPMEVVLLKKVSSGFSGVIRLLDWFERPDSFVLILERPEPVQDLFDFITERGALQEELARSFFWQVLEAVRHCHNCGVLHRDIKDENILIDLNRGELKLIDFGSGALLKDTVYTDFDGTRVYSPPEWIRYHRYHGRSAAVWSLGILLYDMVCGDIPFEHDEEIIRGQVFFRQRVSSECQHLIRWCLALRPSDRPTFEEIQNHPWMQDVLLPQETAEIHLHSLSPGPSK
T2 sequence (P12931 whole entry): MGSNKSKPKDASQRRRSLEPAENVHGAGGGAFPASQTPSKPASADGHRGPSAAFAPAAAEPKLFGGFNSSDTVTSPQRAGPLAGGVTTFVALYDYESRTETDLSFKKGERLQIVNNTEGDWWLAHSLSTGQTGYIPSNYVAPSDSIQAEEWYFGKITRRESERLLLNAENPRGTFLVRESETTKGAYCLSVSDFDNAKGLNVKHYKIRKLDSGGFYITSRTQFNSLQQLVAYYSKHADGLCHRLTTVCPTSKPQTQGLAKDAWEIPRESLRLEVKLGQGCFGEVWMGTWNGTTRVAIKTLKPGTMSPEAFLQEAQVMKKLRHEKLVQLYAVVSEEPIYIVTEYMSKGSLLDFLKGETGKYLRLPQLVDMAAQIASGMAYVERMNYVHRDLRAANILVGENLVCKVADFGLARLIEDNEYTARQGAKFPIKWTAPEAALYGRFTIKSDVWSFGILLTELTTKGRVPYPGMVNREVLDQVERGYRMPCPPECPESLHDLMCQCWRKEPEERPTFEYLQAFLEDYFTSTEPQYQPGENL
T1 sequence (P49841 whole entry, the tested form may be a part): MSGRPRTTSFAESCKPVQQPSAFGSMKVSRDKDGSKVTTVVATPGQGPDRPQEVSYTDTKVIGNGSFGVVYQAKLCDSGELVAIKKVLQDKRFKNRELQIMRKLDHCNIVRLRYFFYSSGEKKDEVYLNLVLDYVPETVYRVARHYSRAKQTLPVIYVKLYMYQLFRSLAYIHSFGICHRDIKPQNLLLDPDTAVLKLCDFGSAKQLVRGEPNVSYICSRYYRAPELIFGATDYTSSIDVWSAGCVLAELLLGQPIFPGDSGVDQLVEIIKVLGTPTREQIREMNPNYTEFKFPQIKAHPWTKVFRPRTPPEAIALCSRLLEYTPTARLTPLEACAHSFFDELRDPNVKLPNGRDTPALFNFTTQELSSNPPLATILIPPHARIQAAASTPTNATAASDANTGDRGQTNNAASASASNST

| SMILES | Ki (GSK-3β (AA 1-420)) [nM] | IC50 (PIM-1) [nM] | further results |
| --- | --- | --- | --- |
| FC(F)(F)c1cccc(-c2nnc3ccc(NC4CCC4)nn23)c1 [Compound I-25] |  | < 1000 | Ki (human Src kinase): < 5 µM |
| COc1ccccc1-c1nnc2ccc(NC3CC3)nn12 [Compound I-29] |  |  | Ki (human Src kinase): < 5 µM |
| COc1ccc2nnc(Nc3ccc(C#N)cc3)n2n1 [Compound I-73] |  |  | Ki (CDK-2/Cyclin A): < 2000 nM |
| Fc1cccc(-c2nnc3ccc(NC4CC4)nn23)c1 [Compound I-20] |  | < 1000 |  |
| FC(F)(F)c1cccc(-c2nnc3ccc(NC4CC4)nn23)c1 [Compound I-18] | < 2000 | < 1000 |  |
| FC(F)(F)c1cccc(-c2nnc3ccc(NC4CCCCC4)nn23)c1 [Compound I-26] |  |  | Ki (human Src kinase): < 5 µM |
| COc1ccc2nnc(Nc3ccccc3OC)n2n1 [Compound I-68] |  |  | Ki (CDK-2/Cyclin A): < 2000 nM |
| COc1cccc(-c2nnc3ccc(NC4CC4)nn23)c1 [Compound I-28] |  | < 1000 | Ki (human Src kinase): < 5 µM |
| COc1ccc(-c2nnc3ccc(NC4CC4)nn23)cc1 [Compound I-24] |  | < 1000 |  |
| Fc1ccc(-c2nnc3ccc(NC4CC4)nn23)cc1 [Compound I-21] | < 2000 | < 1000 |  |

More lines, main results first:

| Ki (GSK-3β (AA 1-420)) [nM] | IC50 (PIM-1) [nM] | SMILES | further results |
| --- | --- | --- | --- |
| < 2000 |  | COc1ccc(Nc2nnc3ccc(OC)nn23)cc1 [Compound I-66] |  |
| < 2000 |  | COc1cccc(-c2nnc3ccc(NCC(N)=O)nn23)c1 [Compound I-39] |  |
| < 2000 |  | COc1ccc(-c2nnc3ccc(NCC(N)=O)nn23)cc1 [Compound I-38] |  |
| < 2000 |  | N#Cc1cccc(-c2nnc3ccc(NCC(N)=O)nn23)c1 [Compound I-40] |  |
| < 2000 |  | N#Cc1ccc(-c2nnc3ccc(NCC(N)=O)nn23)cc1 [Compound I-37] |  |
| < 2000 |  | COc1ccccc1Nc1nnc2ccc(Sc3ccccc3)nn12 [Compound I-62] |  |
| < 2000 |  | COc1ccc(Nc2nnc3ccc(OC)nn23)c(OC)c1 [Compound I-85] |  |
| < 2000 |  | COc1ccc2nnc(Nc3cc(OC)c(OC)c(OC)c3)n2n1 [Compound I-86] |  |
